Measurements published in patent US10647700B2, “EZH2 inhibitor and use thereof” (TARAPEUTICS SCIENCE INC., priority 2017, dated 2020).

What was measured:
[1] = system: H3K27m3 methylation in Pfeiffer cells; experiment: Western Blot of H3K27m3 methylation in Pfeiffer cells; type: cell-based; conditions: 72 hours treatment, H3K27m3 methylation by Western Blot
Method: Meanwhile, the inventors further conducted Western Blot with Pfeiffer cells (purchased from ATCC, USA) for verification. […] Effect of compounds on H3K27m3 methylation in cells was assessed.

[2] = target: PRC2 protein complex comprising EZH2(Y641F) (Homo sapiens (Human), UniProt Q15910, Y641F); experiment: EZH2(Y641F) TR-FRET enzymatic activity assay; conditions: for activity compared with control compounds in the assay using a TR-FRET kit: versus GSK126 and EPZ6438
Method: Subsequently 5 μL of the assay antibody, H3K27me3-Eu(K)Ab (purchased from cisbio bioassays, USA, #61 KC3KAE) and 5 μL Streptavidin-XL665 (purchased from cisbio bioassays, USA, #610SAXLA), were added and incubated for 1 hour at room temperature.

EZH2 = EZH2 (Homo sapiens (Human), UniProt Q15910); experiment: E-cadherin promoter luciferase reporter gene primary screening in 293T cells; type: cell-based; conditions: 293T cells treated for 24 hours, Dual-Glo luciferase; for 1 μM relative fluorescence intensity: compound 1 μM; for 10 μM relative fluorescence intensity: compound 10 μM
Description: EZH2 suppresses the expression of downstream E-cadherin, and upon EZH2 suppression, expression of E-cadherin will increase. Based on such principle, a reporter gene expression vector was constructed using luciferase.
The amplified fragments after PCR and the PGL4.1 vector (purchased from TAKARA, Japan) were respectively subjected to enzyme digestion with SacI and BglII (purchased from TAKARA, Japan), and then purified with PCR cleanup kit (Axygen PCR cleanup kit). Subsequently, the purified and enzyme-digested PCR products was ligated to the purified and enzyme-digested PGL4.1 vector using ligase solution I (DNA Ligation Kit Ver.2.1, purchased from TAKARA, Japan), and subjected to transformation. Single clones were then screened out and subjected to sequencing, and the obtained positive plasmid containing promoter fragments of Ecadherin was named E-cadherin RE-PGL4.1.
Meanwhile, a Renilla fluorescent vector was constructed using PCDNA4.1 (purchased from Thermofisher, USA) as the template to amplify the fragment of CMV promoter. After enzymatic digestion of the amplified CMV sequences and pGL4.70 vector (purchased from Promega, USA) with KpnI and XhoI (purchased from Promega, USA), purification was conducted with PCR cleanup kit (Axygen PCR cleanup kit). Then the enzyme-digested PCR product was ligated to the enzyme-digested PGL4.70 vector using ligase solution I (DNA Ligation Kit Ver.2.1, purchased from TAKARA, Japan) and the resultant was subjected to transformation. Subsequently single clones were screened and subjected to sequencing, and the obtained plasmid that contained CMV sequence was named as Plasmid Renilla luciferase-pGL4.70. Said plasmid utilized CMV promoter to achieve high expression of Renilla luciferase, which served as the control fluorescence for the primary screening system.
The cells were firstly added with 20 μL Dual-Glo® Luciferase Assay Reagent, then incubated under room temperature for 10 minutes, and read on microplate reader Spectramax i3 (Molecular Devices, USA) to obtain the data of primary screening, which is shown in Table 1.

EZH2, sequence (Q15910 whole entry): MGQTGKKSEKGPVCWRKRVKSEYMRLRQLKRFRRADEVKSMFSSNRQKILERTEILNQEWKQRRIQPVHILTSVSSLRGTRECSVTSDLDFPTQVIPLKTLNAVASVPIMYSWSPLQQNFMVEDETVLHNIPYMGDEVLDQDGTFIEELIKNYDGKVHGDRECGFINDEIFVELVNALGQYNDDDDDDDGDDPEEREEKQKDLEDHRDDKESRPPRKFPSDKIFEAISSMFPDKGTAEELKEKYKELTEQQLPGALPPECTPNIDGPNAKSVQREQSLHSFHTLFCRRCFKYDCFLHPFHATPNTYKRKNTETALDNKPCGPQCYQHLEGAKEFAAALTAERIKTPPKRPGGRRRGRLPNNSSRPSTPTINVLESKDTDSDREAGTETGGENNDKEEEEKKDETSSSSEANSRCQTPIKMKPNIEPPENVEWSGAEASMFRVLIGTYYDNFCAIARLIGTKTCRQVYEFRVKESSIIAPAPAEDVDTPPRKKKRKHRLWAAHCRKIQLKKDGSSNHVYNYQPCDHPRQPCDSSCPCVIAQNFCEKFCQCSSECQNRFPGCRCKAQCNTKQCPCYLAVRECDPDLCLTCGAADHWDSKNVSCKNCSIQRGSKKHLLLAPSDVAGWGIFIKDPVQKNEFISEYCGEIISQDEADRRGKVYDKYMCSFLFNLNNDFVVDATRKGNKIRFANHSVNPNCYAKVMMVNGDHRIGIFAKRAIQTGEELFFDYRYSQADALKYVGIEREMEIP
EZH2, sequence (O75530 whole entry partner): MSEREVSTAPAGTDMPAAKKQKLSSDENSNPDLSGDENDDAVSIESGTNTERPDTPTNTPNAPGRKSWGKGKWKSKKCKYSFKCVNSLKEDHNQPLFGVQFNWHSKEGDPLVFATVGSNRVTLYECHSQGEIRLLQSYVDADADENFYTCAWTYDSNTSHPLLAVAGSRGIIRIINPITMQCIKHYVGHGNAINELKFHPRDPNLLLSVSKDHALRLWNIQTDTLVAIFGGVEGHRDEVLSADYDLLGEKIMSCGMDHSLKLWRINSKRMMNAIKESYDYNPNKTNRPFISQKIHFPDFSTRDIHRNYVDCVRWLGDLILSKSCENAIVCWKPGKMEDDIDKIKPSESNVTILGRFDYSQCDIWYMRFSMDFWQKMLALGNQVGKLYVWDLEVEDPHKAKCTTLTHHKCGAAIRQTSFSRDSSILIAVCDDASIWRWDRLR
EZH2, sequence (Q15022 whole entry partner): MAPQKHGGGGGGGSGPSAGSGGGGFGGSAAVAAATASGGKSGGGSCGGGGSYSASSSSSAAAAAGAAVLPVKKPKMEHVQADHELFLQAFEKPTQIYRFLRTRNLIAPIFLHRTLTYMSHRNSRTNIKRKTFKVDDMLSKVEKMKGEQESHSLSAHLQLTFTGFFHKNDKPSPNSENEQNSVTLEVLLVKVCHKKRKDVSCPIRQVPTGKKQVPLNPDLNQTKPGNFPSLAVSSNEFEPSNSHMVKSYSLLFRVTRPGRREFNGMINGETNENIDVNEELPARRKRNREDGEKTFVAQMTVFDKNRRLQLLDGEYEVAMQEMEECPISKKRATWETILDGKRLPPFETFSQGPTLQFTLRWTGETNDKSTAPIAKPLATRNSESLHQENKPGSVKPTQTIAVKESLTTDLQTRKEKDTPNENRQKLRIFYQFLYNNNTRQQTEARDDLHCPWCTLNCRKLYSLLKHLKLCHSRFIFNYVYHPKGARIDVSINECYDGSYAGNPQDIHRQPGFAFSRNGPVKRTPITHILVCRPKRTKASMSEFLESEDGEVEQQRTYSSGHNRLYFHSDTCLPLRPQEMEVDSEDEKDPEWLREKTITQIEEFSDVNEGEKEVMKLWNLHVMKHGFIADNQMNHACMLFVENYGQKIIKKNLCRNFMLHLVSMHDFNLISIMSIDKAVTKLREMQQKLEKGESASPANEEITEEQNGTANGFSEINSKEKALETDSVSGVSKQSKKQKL
EZH2, sequence (Q09028 whole entry partner): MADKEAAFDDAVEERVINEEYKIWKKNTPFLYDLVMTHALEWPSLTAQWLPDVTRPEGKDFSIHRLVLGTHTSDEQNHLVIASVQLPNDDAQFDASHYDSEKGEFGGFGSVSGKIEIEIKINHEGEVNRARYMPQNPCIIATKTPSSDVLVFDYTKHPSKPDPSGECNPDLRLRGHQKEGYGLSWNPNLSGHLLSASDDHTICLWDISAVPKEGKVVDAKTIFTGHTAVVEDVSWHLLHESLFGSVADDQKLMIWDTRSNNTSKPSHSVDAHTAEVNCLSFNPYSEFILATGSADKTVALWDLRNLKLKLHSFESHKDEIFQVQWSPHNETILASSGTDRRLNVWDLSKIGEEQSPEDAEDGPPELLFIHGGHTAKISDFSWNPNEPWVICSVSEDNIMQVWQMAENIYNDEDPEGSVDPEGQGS
PRC2 protein complex comprising EZH2(Y641F), sequence (Q15910 whole entry Y641F): as the sequence (Q15910 whole entry) above, with Y641F counted along it
PRC2 protein complex comprising EZH2(Y641F), sequence (O75530 whole entry partner): as the sequence (O75530 whole entry partner) above
PRC2 protein complex comprising EZH2(Y641F), sequence (Q15022 whole entry partner): as the sequence (Q15022 whole entry partner) above
PRC2 protein complex comprising EZH2(Y641F), sequence (Q09028 whole entry partner): as the sequence (Q09028 whole entry partner) above
PRC2 protein complex comprising EZH2(Y641F), sequence (Q6ZN18 whole entry partner): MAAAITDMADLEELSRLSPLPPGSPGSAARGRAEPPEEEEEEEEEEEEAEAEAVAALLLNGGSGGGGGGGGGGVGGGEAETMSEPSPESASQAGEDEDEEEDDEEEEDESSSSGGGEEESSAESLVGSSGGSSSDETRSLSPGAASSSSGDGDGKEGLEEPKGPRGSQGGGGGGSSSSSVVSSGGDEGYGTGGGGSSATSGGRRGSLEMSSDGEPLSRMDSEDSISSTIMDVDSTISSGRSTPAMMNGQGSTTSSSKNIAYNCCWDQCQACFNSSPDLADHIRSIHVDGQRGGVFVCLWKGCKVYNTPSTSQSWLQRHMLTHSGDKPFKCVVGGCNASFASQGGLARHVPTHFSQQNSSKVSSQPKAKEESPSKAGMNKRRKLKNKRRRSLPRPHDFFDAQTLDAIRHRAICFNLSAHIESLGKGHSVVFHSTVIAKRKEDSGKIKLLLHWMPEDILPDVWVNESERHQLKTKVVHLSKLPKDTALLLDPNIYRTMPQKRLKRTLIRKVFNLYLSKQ

SMILES | IC50 ([1]; Homo sapiens) [µM] | 1 μM relative fluorescence intensity (EZH2) | 10 μM relative fluorescence intensity (EZH2) | further results
CCN(C(=O)C1CC1)c1cc(-c2ccc(CN3CCOCC3)cc2)cc(C(=O)NCc2c(C)cc(C)[nH]c2=O)c1C [Compound 5, N-((4,6-dimethyl-2-oxo-1,2-dihydropyridin-3-yl)methyl)-5-(N-ethylcyclopropanecarboxamido)-4-methyl-4′-(morpholinomethyl)-[1,1′-diphenyl]-3-carboxamide] | 0.086 |  |  | 
CCN(C(=O)C1CCCC1)c1cc(-c2ccc(CN3CCOCC3)cc2)cc(C(=O)NCc2c(C)cc(C)[nH]c2=O)c1C [Compound 16, N-((4,6-dimethyl-2-oxo-1,2-dihydropyridin-3-yl)methyl)-5-(N-ethylcyclopentanecarboxamido)-4-methyl-4′-(morpholinomethyl)-[1,1′-diphenyl]-3-carboxamide] | 0.126 |  |  | 
CCN(C(=O)C1CCCC1)c1cc(-c2ccc(CN3CCN(C(=O)OC(C)(C)C)CC3)cc2)cc(C(=O)NCc2c(C)cc(C)[nH]c2=O)c1C [Compound 24, tert-butyl-4-((3′-(((4,6-dimethyl-2-oxo-1,2-dihydropyridin-3-yl)methyl)carbamoyl)-5′-(N-ethylcyclopentanecarboxamido)-4′-methyl-[1,1′-diphenyl]-4-yl)methyl)piperazin-1-carboxylate] | 0.073 |  |  | IC50 [2]: 0.0806 µM; activity compared with control compounds in the assay using a TR-FRET kit [2]: superior activity than control compounds GSK126 and EPZ6438
CCN(C(=O)C1CCCC1)c1cc(-c2ccc(N3CCN(C(=O)OC(C)(C)C)CC3)nc2)cc(C(=O)NCc2c(C)cc(C)[nH]c2=O)c1C [Compound 29, tertbutyl-4-(5-(3-(((4,6-dimethyl-2-oxo-1,2-dihydropyridin-3-yl)methyl)carbamoyl)-5-(N-ethylcyclopentanecarboxamido)-4-methylphenyl)pyridin-2-yl)piperazin-1-carboxylate] | 2.6 | 176.86 | 364.77 | 
CCN(C(=O)C1CCCC1)c1cc(-c2ccc(N3CCNCC3)cc2)cc(C(=O)NCc2c(C)cc(C)[nH]c2=O)c1C [Compound 31, N-((4,6-dimethyl-2-oxo-1,2-dihydropyridin-3-yl)methyl)-5-(N-ethylcyclopentanecarboxamido)-4-methyl-4′-(piperazin-1-yl)-[1,1′-diphenyl]-3-carboxamide] | 0.087 |  |  | IC50 [2]: 0.444 µM
CCN(C(=O)C1CCCC1)c1cc(-c2ccc(N3CCNCC3)nc2)cc(C(=O)NCc2c(C)cc(C)[nH]c2=O)c1C [Compound 32, N-((4,6-dimethyl-2-oxo-1,2-dihydropyridin-3-yl)methyl)-3-(N-ethylcyclopentanecarboxamido)-2-methyl-5-(6-(piperazin-1-yl)pyridin-3-yl)-benzamide] | 0.95 |  |  | 
CCN(C(=O)C1CCCC1)c1cc(C#N)cc(C(=O)NCc2c(C)cc(C)[nH]c2=O)c1C [Compound 33, 5-cyano-N-((4,6-dimethyl-2-oxo-1,2-dihydropyridin-3-yl)methyl)-3-(N-ethylcyclopentanecarboxamido)-2-methylbenzamide] | 0.67 | 123.27 | 224.69 | 
CCN(C(=O)C1CCCC1)c1cc(-c2ccnc(N3CCN(CC4CC4)CC3)c2)cc(C(=O)NCc2c(C)cc(C)[nH]c2=O)c1C [Compound 38, 5-(2-(4-(cyclopropylmethyl)piperazin-1-yl)pyridin-4-yl)-N-((4,6-dimethyl-2-oxo-1,2-dihydropyridin-3-yl)methyl)-3-(N-ethylcyclopentanecarboxamido)-2-methylbenzamide] | 0.23 |  |  | IC50 [2]: 0.515 µM
CCCc1cc(C)[nH]c(=O)c1CNC(=O)c1cc(-c2ccnc(N3CCN(CC4CC4)CC3)c2)cc(N(CC)C(=O)C2CCCC2)c1C [Compound 39, 5-(2-(4-(cyclopropylmethyl)piperazin-1-yl)pyridin-4-yl)-3-(N-ethylcyclopentanecarboxamido)-2-methyl-N-((6-methyl-2-oxo-4-propyl-1,2-dihydropyridin-3-yl)methyl)benzamide] | 0.83 |  |  | 
CCN(C(=O)C1CCCC1)c1cc(-c2ccc(OCCN3CCOCC3)cc2)cc(C(=O)NCc2c(C)cc(C)[nH]c2=O)c1C [Compound 40, N-((4,6-dimethyl-2-oxo-1,2-dihydropyridin-3-yl)methyl)-5-(N-ethylcyclopentanecarboxamido)-4-methyl-4′-(2-morpholinoethoxyl)-[1,1′-diphenyl]-3-carboxamide] | 0.24 |  |  | IC50 [2]: 0.22 µM
CCN(C(=O)C1CCCC1)c1cc(-c2ccc(Oc3ccccc3)cc2)cc(C(=O)NCc2c(C)cc(C)[nH]c2=O)c1C [Compound 41, N-((4,6-dimethyl-2-oxo-1,2-dihydropyridin-3-yl)methyl)-5-(N-ethylcyclopentanecarboxamido)-4-methyl-4′-phenoxy-[1,1′-diphenyl]-3-carboxamide] |  | 156.04 | 183.38 | 
CCN(C(=O)C1CCCC1)c1cc(-c2ccc(OCCCN3CCOCC3)c(F)c2)cc(C(=O)NCc2c(C)cc(C)[nH]c2=O)c1C [Compound 42, N-((4,6-dimethyl-2-oxo-1,2-dihydropyridin-3-yl)methyl)-5-(N-ethylcyclopentanecarboxamido)-3′-fluoro-4-methyl-4′-(3-morpholinopropoxy)-[1,1′-diphenyl]-3-carboxamide] |  | 179.84 | 234.50 | 
CCN(C(=O)C1CCCC1)c1cc(-c2ccc(C(C)=O)s2)cc(C(=O)NCc2c(C)cc(C)[nH]c2=O)c1C [Compound 43, 5-(5-acetylthiophene-2-yl)-N-((4,6-dimethyl-2-oxo-1,2-dihydropyridin-3-yl)methyl)-3-(N-ethylcyclopentanecarboxamido)-2-methylbenzamide] |  | 147.30 | 235.05 | 
CCN(C(=O)C1CCCC1)c1cc(-c2ccc(OCCCN3CCOCC3)cc2F)cc(C(=O)NCc2c(C)cc(C)[nH]c2=O)c1C [Compound 44, N-((4,6-dimethyl-2-oxo-1,2-dihydropyridin-3-yl)methyl)-5-(N-ethylcyclopentanecarboxamido)-2′-fluoro-4-methyl-4′-(3-morpholinopropoxy)-[1,1′-diphenyl]-3-carboxamide] |  | 181.04 | 217.02 | 
CCN(C(=O)C1CCCC1)c1cc(-c2ccc(OCCCN3CCOCC3)cc2C)cc(C(=O)NCc2c(C)cc(C)[nH]c2=O)c1C [Compound 45, N-((4,6-dimethyl-2-oxo-1,2-dihydropyridin-3-yl)methyl)-5-(N-ethylcyclopentanecarboxamido)-2′,4-methyl-4′-(3-morpholinopropoxy)-[1,1′-diphenyl]-3-carboxamide] |  | 189.05 | 218.76 | 
CCN(C(=O)C1CC2C=CC1C2)c1cc(-c2ccc(CN3CCOCC3)cc2)cc(C(=O)NCc2c(C)cc(C)[nH]c2=O)c1C [Compound 60, (1R,4R)—N-(5-(((4,6-dimethyl-2-oxo-1,2-dihydropyridin-3-yl)methyl)carbamoyl-4-methyl-4′-(morpholinomethyl)-[1,1′-diphenyl]-3-yl)-N-ethylbicyclo[2.2.1]hept-5-en-2-carboxamide] |  | 143 | 171 | 3 μM relative fluorescence intensity (EZH2; compound 3 μM): 140
CCN(C(=O)C1CCCC1)c1cc(-c2ccc(OCCN3CCOCC3)cc2C)cc(C(=O)NCc2c(C)cc(C)[nH]c2=O)c1C [Compound 63, N-((4,6-dimethyl-2-oxo-1,2-dihydropyridin-3-yl)methyl)-5-(N-ethylcyclopentanecarboxamido)-2′,4-dimethyl-4′-(2-morpholinoethoxyl)-[1,1′-diphenyl]-3-carboxamide] | 0.43 |  |  | IC50 [2]: 0.103 µM; activity compared with control compounds in the assay using a TR-FRET kit [2]: superior activity than control compounds GSK126 and EPZ6438
CC[C@H](C)n1cc(C)c2c(C(=O)NCc3c(C)cc(C)[nH]c3=O)cc(-c3ccc(N4CCNCC4)nc3)cc21 [GSK126, reference compound] |  |  |  | IC50 [1]: 1.4 µM
